In publication PMC10729961, “Putative purine nucleoside interacting residues in the malaria parasite purine uptake transporter PfENT1 are critical for transporter function” (PLOS ONE, 2023):
Entries after “also recorded” stand apart in the source; their conditions may differ.

Columns and labels:
[1] = tested on: purine auxotrophic yeast (ade2Δ, fui1Δ); test: 5-Fluorouridine (5-FUrd) toxicity assay; type: cell-based; settings: ade2Δ strain; 500 μM adenine plus 125 μM 5-FUrd; OD600 at 24 h
Method: (§1) 5-FUrd toxicity was measured in a subset of the PfENT1 mutants. Mutants were grown overnight in SDM with 1 mM adenine. Meanwhile, purine auxotrophic yeast were grown in YPD overnight. Yeast strains were spun down and resuspended in sterile water then added to the honeycomb plates with SDM media with NP40 (final concentration of 0.1%) containing either no adenine, 500 μM adenine, or 500 μM adenine plus 125 μM 5-FUrd (Fisher Scientific Cat. #AAJ6208303) with an initial OD600 = 0.05 and a final volume of 150 μL. Typically, 10 μL of yeast (final concentration of resuspended yeast OD600 = around 0.8) were added to 140 μL of media. Each trial contained triplicates. The 100-well honeycomb plate was placed in the Bioscreen C for 24-h under continuous high shaking at 30°C. The endpoint OD600 was measured at 24 h. Each experiment was repeated at least three times on separate days.

[2] = tested on: yeast expressing D287C PfENT1; test: 5-Fluorouridine (5-FUrd) toxicity assay; type: cell-based; settings: 500 μM adenine plus 125 μM 5-FUrd, OD600 at 24 h
Method: as §1

[3] = tested on: yeast expressing W53C PfENT1; test: 5-Fluorouridine (5-FUrd) toxicity assay; type: cell-based; settings: 500 μM adenine plus 125 μM 5-FUrd, OD600 at 24 h
Method: as §1

[4] = tested on: yeast expressing F286C PfENT1; test: 5-Fluorouridine (5-FUrd) toxicity assay; type: cell-based; settings: 500 μM adenine plus 125 μM 5-FUrd, OD600 at 24 h
Method: as §1

[5] = tested on: yeast expressing L50C PfENT1; test: 5-Fluorouridine (5-FUrd) toxicity assay; type: cell-based; settings: 500 μM adenine plus 125 μM 5-FUrd, OD600 at 24 h
Method: as §1

[6] = tested on: yeast expressing N51C PfENT1; test: 5-Fluorouridine (5-FUrd) toxicity assay; type: cell-based; settings: 500 μM adenine plus 125 μM 5-FUrd, OD600 at 24 h
Method: as §1

[7] = tested on: yeast expressing R291C PfENT1; test: 5-Fluorouridine (5-FUrd) toxicity assay; type: cell-based; settings: 500 μM adenine plus 125 μM 5-FUrd, OD600 at 24 h
Method: as §1

[8] = tested on: yeast expressing S290C PfENT1; test: 5-Fluorouridine (5-FUrd) toxicity assay; type: cell-based; settings: 500 μM adenine plus 125 μM 5-FUrd, OD600 at 24 h
Method: as §1

[9] = tested on: yeast expressing Q135C PfENT1; test: 5-Fluorouridine (5-FUrd) toxicity assay; type: cell-based; settings: 500 μM adenine plus 125 μM 5-FUrd, OD600 at 24 h
Method: as §1

[10] = tested on: yeast expressing WT PfENT1; test: 5-Fluorouridine (5-FUrd) toxicity assay; type: cell-based; settings: 500 μM adenine plus 125 μM 5-FUrd, OD600 at 24 h
Method: as §1

PfENT1 R291A [11] = settings: yeast expressing R291A, Y190A background; cited from earlier work
PfENT1 W53A [12] = settings: cited from earlier work
PfENT1 W53A [13] = settings: yeast expressing W53A, Y190A background; cited from earlier work
PfENT1 D287A [14] = settings: cited from earlier work
PfENT1 R291A [15] = settings: cited from earlier work
PfENT1 Q135A [16] = settings: cited from earlier work
PfENT1 Q135A [17] = settings: yeast expressing Q135A, Y190A background; cited from earlier work
PfENT1 D287A [18] = settings: yeast expressing D287A, Y190A background; cited from earlier work
PfENT1 S49A = settings: cited from earlier work

SMILES	5-FUrd assay [1]	5-FUrd assay [2]	5-FUrd assay [3]	5-FUrd assay [4]	5-FUrd assay [5]	5-FUrd assay [6]	5-FUrd assay [7]	5-FUrd assay [8]	5-FUrd assay [9]	5-FUrd assay [10]	uptake of radioactive inosine (PfENT1 R291A [11])	inosine binding by ITC (PfENT1 W53A [12])	uptake of radioactive inosine (PfENT1 W53A [13])	inosine binding by ITC (PfENT1 D287A [14])	inosine binding by ITC (PfENT1 R291A [15])	inosine binding by ITC (PfENT1 Q135A [16])	uptake of radioactive inosine (PfENT1 Q135A [17])	uptake of radioactive inosine (PfENT1 D287A [18])	inosine binding by ITC (PfENT1 S49A)
O=c1[nH]c(=O)n([C@@H]2O[C@H](CO)[C@@H](O)[C@H]2O)cc1F [5-FUrd, 5-Fluorouridine]	growth-non-functional	did grow; also recorded: growth-non-functional*	did grow; also recorded: growth-non-functional*	did not grow; also recorded: killed-functional	did not grow; also recorded: killed-functional	did not grow; also recorded: killed-functional	did grow; also recorded: growth-non-functional*	did grow; also recorded: growth-non-functional*	did grow; also recorded: growth-non-functional*	did not grow; also recorded: killed-functional									
O=c1[nH]cnc2c1ncn2[C@@H]1O[C@H](CO)[C@@H](O)[C@H]1O [inosine]											did not show uptake	bound with lower affinity	did not show uptake	did not bind	bound with lower affinity	did not bind	did not show uptake	did not show uptake	did not bind
